Source: ChEMBL document CHEMBL1134526, “Enantioselective syntheses of potent retinoid X receptor ligands: differential biological activities of individual antipodes” (J Med Chem, 2001)

What was measured:
Format in all cases: functional
Mus musculus [1] = experiment: Hypoglycemic activity in mice at 8 mg/kg dose at day=0
Mus musculus [2] = experiment: Hypoglycemic activity in mice at 8 mg/kg dose at day=7
Mus musculus [3] = experiment: Hypoglycemic activity in mice at 2 mg/kg dose at day=0
Mus musculus [4] = experiment: Hypoglycemic activity in mice at 2 mg/kg dose at day=7
Mus musculus [5] = experiment: Hypoglycemic activity in mice at 0.4 mg/kg dose at day=0
Mus musculus [6] = experiment: Hypoglycemic activity in mice at 0.4 mg/kg dose at day=7

Structure (SMILES)	Glucose level (Mus musculus [1]) [mg/dL]	Glucose level (Mus musculus [2]) [mg/dL]	Glucose level (Mus musculus [3]) [mg/dL]	Glucose level (Mus musculus [4]) [mg/dL]	Glucose level (Mus musculus [5]) [mg/dL]	Glucose level (Mus musculus [6]) [mg/dL]
CC(/C=C/[C@H]1C[C@@]1(C)c1ccc2c(c1)C(C)(C)CCC2(C)C)=C\C(=O)O	404	441	400	391	–	–
CC(/C=C/[C@@H]1C[C@]1(C)c1ccc2c(c1)C(C)(C)CCC2(C)C)=C\C(=O)O [IRX-4204]	–	–	404	221	406	291
